Earlier results as cited in patent US20210095288A1, “METHODS OF MODULATING NKX6.3” (SOCIETE DES PRODUITS NESTLE S.A., priority 2018, published 2021).

System: NKX6.3
Conditions: effect on NKX6.3 expression; from Davis A P, et al., Comparative Toxicogenomics Database: update 2017

Row | SMILES | Interaction Actions
1 | CCC[CH2][Sn]([CH2]CCC)([CH2]CCC)[O][Sn]([CH2]CCC)([CH2]CCC)[CH2]CCC [bis(tri-n-butyltin)oxide] | Decreases
2 | CCCc1cc(=O)[nH]c(=S)[nH]1 [Propylthiouracil] | Decreases
3 | CC(C)(c1ccc(O)cc1)c1ccc(O)cc1 [bisphenol A] | Decreases
4 | COC[C@@H]([C@H](O)[C@H](O)C(=O)NCC[C@H](C)c1nc(/C=C/C[C@@H]2O[C@]3(C[C@@H](O)[C@@H]2C)O[C@H]([C@H](C[C@H](O)[C@H](C)[C@H](O)[C@H](C)/C=C(C)/C(C)=C/C=C/C(C)=C\C#N)OC)[C@H](OP(=O)(O)O)C3(C)C)co1)N(C)C [calyculin A] | Decreases
5 | CC(=O)Nc1ccc(O)cc1 [Acetaminophen] | Decreases
